Test results from patent US20220096529A1, “2-HYDROXYPROPYL-BETA-CYCLODEXTRIN (HPBETACD) FOR USE IN THE TREATMENT OF BREAST CANCER” (UNIVERSITY OF THE WITWATERSRAND, JOHANNESBURG, priority 2019, published 2022).
Like-named read-outs stand apart in the source and are kept apart here.

Tests used:
MCF7 cells [1] = assay: MTT growth inhibition assay; format: cell-based, human
Protocol: (§1) Cells were cultured in appropriate medium supplemented with 10% FCS, penicillin (100 U/ml), and streptomycin (100 μg/ml) (Gibco) at 5% CO2 in a 37° C. incubator.
(§2) Four different cell lines were used MCF7 (ER+). MDA-MB-231 (ER−), MRC-5 (Lung Fibroblasts) and HEK-293 (Embryonic kidney). MRC-5 and/or HEK-293 were used as control cell lines depending on availability.
(§3) In order to determine whether HPβCD has the ability to induce cancer cell death a primary screening using an MTT assay was performed. Three different time points 24 hrs.

MDA-MB-231 cells [2] = assay: MTT growth inhibition assay; format: cell-based, human
Protocol: as §1, §2, §3

HEK-293 cells = format: cell-based, human
Protocol: as §1, §2, §3

MRC-5 cells [3] = format: cell-based, human; details: for concentration for 50% growth inhibition in normal cells compared to cancerous cells: MRC-5 and HEK-293 vs cancerous cells
Protocol: as §1, §2, §3

MCF7 cells [4] = assay: ROS assay; format: cell-based, human
Protocol: (§4) To further validate the occurrence of apoptosis and to investigate the exact mechanisms if apoptosis, a ROS assay was conducted to capture the production of ROS. […] In order to be in solidarity with this fact, a ROS assay was performed in three cell lines: MCF7, MDA-MB-231 & MRC-5. Like before, HPβCD and the positive (10 mM H2O2) were treated for 24 hrs. The right hand section in each plot represents the production of ROS.

MDA-MB-231 cells [5] = assay: ROS assay; format: cell-based, human
Protocol: as §4

MRC-5 cells [6] = assay: ROS assay; format: cell-based, human
Protocol: as §4

MDA-MB-231 cells [7] = assay: Filipin cholesterol staining; format: cell-based, human
Protocol: To further validate cholesterol depletion as observed from the cholesterol assay above a Filipin based cholesterol staining was conducted. MCF7. MDA-MB-231 cells were used. HEK-293 cells could not be used due to unavailability. HPβCD and the positive (5 mM MBCD) were treated for 24 hrs. Like PL, MBCD is also a well know cholesterol depletor.
Fluorescence microscopy has been a robust tool for investigating the intracellular transport of proteins. Filipin specifically binds to cholesterol and can give an overall quantification and has been more recently been clinically used in the diagnosis of Type C Niemann-Pick disease.

MDA-MB-231 tumours = assay: Filipin cholesterol staining of tumour tissue from mice; format: in vivo; details: intermediate and late stage tumours
From the text: 4 from untreated, 3 from intermediate and 4 from late stage.

MDA-MB-231 cells [8] = assay: BODIPY lipid droplet staining; format: cell-based, human
From the text: Lipid droplets store cholesterol and HPβCD was able to reduce accumulation and storage of cholesterol in cancer cells.

MCF7 cells [9] = assay: BODIPY lipid droplet staining; format: cell-based, human
Protocol: Lipid droplets store cholesterol and HPβCD was able to reduce accumulation and storage of cholesterol in cancer cells (see FIG. 52). […] (A) is untreated, (B) is positive and (C) is treated. […] Lipid droplets store cholesterol and HPβCD was able to reduce accumulation and storage of cholesterol in cancer cells.

Substance 2-hydroxypropyl-β-cyclodextrin [HPβCD] has a growth inhibition (MCF7 cells [1]; MCF7, 10 mM HPβCD, all three time points (24, 48, 72 hrs)) of ~45%, an IC50 (MCF7 cells [1]; MCF7, 24 hrs) of 11.1 mM and an IC50 (MCF7 cells [1]; MCF7, 48 hrs) of 9.82 mM. For the same substance, the IC50 (MCF7 cells [1]; MCF7, 72 hrs) was 7.45 mM, the growth inhibition (MDA-MB-231 cells [2]; MDA-MB-231, 10 mM HPβCD, all three time points) was ~45% and the IC50 (MDA-MB-231 cells [2]; MDA-MB-231, 24 hrs) was 12.3 mM. For the same substance, the IC50 (MDA-MB-231 cells [2]; MDA-MB-231, 48 hrs) was 11.2 mM, the IC50 (MDA-MB-231 cells [2]; MDA-MB-231, 72 hrs) was 8.56 mM and the IC50 (HEK-293 cells; HEK-293, 24 hrs) was 22.8 mM. For the same substance, the IC50 (HEK-293 cells; HEK-293, 48 hrs) was 26.5 mM, the IC50 (HEK-293 cells; HEK-293, 72 hrs) was 50.3 mM and the growth inhibition (HEK-293 cells; HEK-293, till 10 mM HPβCD, 24 hrs and 48 hrs) was “absolutely zero growth inhibition”. For the same substance, the IC50 (MRC-5 cells [3]; MRC-5, 24 hrs) was 20.7 mM, the IC50 (MRC-5 cells [3]; MRC-5, 48 hrs) was 19.9 mM and the IC50 (MRC-5 cells [3]; MRC-5, 72 hrs) was 41.7 mM. The growth inhibition (MRC-5 cells [3]; MRC-5, till 10 mM HPβCD, 24 hrs and 48 hrs) was “absolutely zero growth inhibition”, the “concentration for 50% growth inhibition in normal cells compared to cancerous cells” value (MRC-5 cells [3]; 24 hrs) was “almost double” and the “concentration for 50% growth inhibition in normal cells compared to cancerous cells” value (MRC-5 cells [3]; 72 hrs) was “almost five times”. The “ROS production compared to untreated” value (MCF7 cells [4]; MCF7, 10 mM HPβCD) was “about 2.5 fold”, the ROS generation (MCF7 cells [4]; MCF7, 10 mM, 24 hrs) was 17.9% and the “ROS production compared to untreated” value (MDA-MB-231 cells [5]; MDA-MB-231, 10 mM HPβCD) was “about 4 fold”. For the same substance, the ROS generation (MDA-MB-231 cells [5]; MDA-MB-231, 10 mM, 24 hrs) was 13.7%, the “ROS production compared to untreated” value (MRC-5 cells [6]; MRC-5, 10 mM HPβCD) was ~4 folds and the ROS generation (MRC-5 cells [6]; MRC-5, 10 mM, 24 hrs) was 10.8%. For the same substance, the “Filipin fluorescence compared to untreated” value (MDA-MB-231 cells [7]; MDA-MB-231, 10 mM HPβCD, 24 hrs, ImageJ) was “six times less fluorescence”, the “cholesterol (Filipin staining) in treated vs untreated cells” value (MDA-MB-231 cells [7]; MDA-MB-231, FIG. 46) was “decreased cholesterol” and the “cholesterol (Filipin staining) in tumours compared to untreated” value (MDA-MB-231 tumours) was “decreased cholesterol”. The “lipid droplets (BODIPY) in treated vs untreated cells” value (MDA-MB-231 cells [8]) was “decrease in lipid droplets” and the “lipid droplets (BODIPY) in treated vs untreated cells” value (MCF7 cells [9]) was “decrease in lipid droplets”.
